Data on 15 compounds can be found in PubChem BioAssay (NCI).

Each structure is given as a SMILES string.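 Cells were grown in 96-well plates and exposed to each compound for 48 hours at five concentrations; endpoints were interpolated linearly between bracketing concentrations, or set to the highest concentration if not reached. Definition used: TGI = concentration required for complete inhibition of growth.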 Where a SMILES comes first, the peptide text is derived from it. [ ]: non-standard residue; d: D form. The star is where a group is joined. mTyr = N[CH](Cc1cccc(O)c1)C(=O)O; Cbz = O=C(OCc1ccccc1)*; OBn = c1ccc(CO*)cc1

Among the test systems are CCRF-CEM leukemia; HCC-2998 colon; HS 578T breast; M14 melanoma; OVCAR-8 ovarian; PC-3 prostate; SF-539 CNS; SK-MEL-5 melanoma; U251 CNS; COLO 205 colon.
Common to all, as to assay: growth of human tumour cells (NCI), 48 h

Take `CCC[C@H](C)C[C@H](C)C[C@H](C)/C=C(\C)[C@@H](O)[C@@H](C)C(=O)CC`: the TGI in the experiment with CCRF-CEM leukemia was 52.8 µM; with HCC-2998 colon it was 31.2 µM; in the experiment with HS 578T breast, 51.8 µM; in the experiment on M14 melanoma, 35.7 µM; in the experiment on OVCAR-8 ovarian, 39.4 µM; with PC-3 prostate, 37.2 µM. The figures for the TGI in the experiment with SF-539 CNS, in the experiment on SK-MEL-5 melanoma and with U251 CNS were 37 µM, 36.1 µM and 44.7 µM, respectively.
Regarding `O=C(CSC1=NCCN1)Nc1ccccc1`, the TGI in the experiment on CCRF-CEM leukemia is greater than 100 µM; in the experiment with HCC-2998 colon, 63.1 µM; with HS 578T breast it was 65.9 µM; with M14 melanoma it was greater than 100 µM; with OVCAR-8 ovarian it was greater than 100 µM; in the experiment on PC-3 prostate it was 52.6 µM. Besides, in the experiment on U251 CNS, the TGI worked out at 39.2 µM.
Turning to `Fc1ccccc1C1SCc2nc3cc4ccccc4cc3n21` (stereo not given), the TGI was greater than 100 µM in the experiment on CCRF-CEM leukemia; greater than 100 µM in the experiment on COLO 205 colon; greater than 100 µM with HCC-2998 colon; 96.4 µM in the experiment with HS 578T breast; greater than 100 µM in the experiment on M14 melanoma; greater than 100 µM in the experiment on OVCAR-8 ovarian. Further, the TGI with PC-3 prostate, in the experiment with SK-MEL-5 melanoma and with U251 CNS was greater than 100 µM each time.
For `COc1ccc(-n2cnc3c(NC(CCSC)C(=O)O)ncnc32)cc1` (stereo not given), the TGI with CCRF-CEM leukemia, in the experiment on COLO 205 colon, in the experiment on HCC-2998 colon, in the experiment on HS 578T breast, in the experiment with M14 melanoma and with OVCAR-8 ovarian was greater than 100 µM in each case. The TGI in the experiment on PC-3 prostate, in the experiment on SK-MEL-5 melanoma and with U251 CNS was greater than 100 µM throughout.
For `CCN(CC)Cc1sc2nc3ccccc3n2c1-c1ccc(OC)cc1`, the TGI in the experiment on CCRF-CEM leukemia was 67.6 µM; with COLO 205 colon, 77.3 µM; in the experiment on HCC-2998 colon, greater than 100 µM; in the experiment on HS 578T breast, greater than 100 µM; in the experiment with M14 melanoma, greater than 100 µM; with OVCAR-8 ovarian, greater than 100 µM. Moreover, the TGI in the experiment on PC-3 prostate and in the experiment with U251 CNS was greater than 100 µM in each case.
In the case of `CC(C)(C)c1cc(C2COC(c3cc(C(C)(C)C)c(O)c(C(C)(C)C)c3)CO2)cc(C(C)(C)C)c1O` (stereo not given), the TGI was greater than 100 µM with CCRF-CEM leukemia; 96.7 µM with COLO 205 colon; greater than 100 µM with HS 578T breast; greater than 100 µM in the experiment on M14 melanoma; greater than 100 µM with OVCAR-8 ovarian; greater than 100 µM in the experiment on PC-3 prostate. Also, the TGI in the experiment with SF-539 CNS, in the experiment with SK-MEL-5 melanoma and with U251 CNS was greater than 100 µM in each case.
As for `CCOc1cc(NC(C)=O)ccc1C(=O)NN1C(=O)C(Cl)C1c1ccco1` (stereo not given), the TGI in the experiment with CCRF-CEM leukemia was 49.1 µM; with COLO 205 colon it was 38.3 µM; in the experiment with HCC-2998 colon, 29.5 µM; in the experiment with HS 578T breast it was 65.5 µM; in the experiment on M14 melanoma, 36.8 µM; in the experiment with OVCAR-8 ovarian, greater than 100 µM. Moreover, the TGI with PC-3 prostate was 32.3 µM; with SF-539 CNS, 38 µM; in the experiment on SK-MEL-5 melanoma, 27.9 µM.
On to `CN(C)CCCN1c2ccccc2CCc2ccc([N+](=O)[O-])cc21`, for which the TGI was greater than 100 µM in the experiment on CCRF-CEM leukemia; 32 µM in the experiment with COLO 205 colon; 28.5 µM in the experiment with HCC-2998 colon; greater than 100 µM with HS 578T breast; 30.6 µM in the experiment on M14 melanoma; greater than 100 µM in the experiment with OVCAR-8 ovarian. Also, the TGI with PC-3 prostate is greater than 100 µM; in the experiment on SK-MEL-5 melanoma, 31.4 µM; in the experiment with U251 CNS, greater than 100 µM.
With `Cc1ccc2c(=O)cc(-c3ccc(-c4ccccc4)s3)[nH]c2n1`, the TGI in the experiment with CCRF-CEM leukemia is greater than 100 µM; with COLO 205 colon, greater than 100 µM; in the experiment with HS 578T breast it was greater than 72.6 µM; in the experiment with M14 melanoma, greater than 100 µM; with OVCAR-8 ovarian it was greater than 100 µM; in the experiment on PC-3 prostate, 85.5 µM. For the same compound, the figures for the TGI in the experiment with SF-539 CNS, with SK-MEL-5 melanoma and in the experiment with U251 CNS were 36.6 µM, greater than 39.7 µM and greater than 100 µM, respectively.
For `Brc1ccc(-c2cn3ccncc3n2)cc1`, the TGI with CCRF-CEM leukemia, in the experiment on COLO 205 colon, in the experiment with HS 578T breast, with M14 melanoma, in the experiment on OVCAR-8 ovarian and with PC-3 prostate was greater than 100 µM throughout. Besides, the TGI with SF-539 CNS, in the experiment on SK-MEL-5 melanoma and in the experiment on U251 CNS was greater than 100 µM in each case.
Turning to `Cc1ccc(/C=C2\CCCC(CN3CCCCC3)C2=O)cc1` (stereo not given), the TGI is 3.03 µM in the experiment with CCRF-CEM leukemia; 3.25 µM in the experiment on COLO 205 colon; 28.9 µM in the experiment with HCC-2998 colon; 6.59 µM in the experiment with HS 578T breast; 6.79 µM in the experiment on OVCAR-8 ovarian; 5.74 µM in the experiment with PC-3 prostate. Besides, the values for the TGI with SF-539 CNS, with SK-MEL-5 melanoma and in the experiment with U251 CNS were 15.6 µM, 17.4 µM and 27.3 µM, respectively.
Consider `CC(C)(CC(O)C#N)/[N+]([O-])=[N+](\[O-])C(C)(C)CC(O)C#N` (stereo not given), for which the TGI in the experiment with COLO 205 colon was 31.7 µM; with HCC-2998 colon, 34.2 µM; with HS 578T breast it was greater than 100 µM; in the experiment with M14 melanoma it was 36.9 µM; in the experiment with OVCAR-8 ovarian, greater than 100 µM; with PC-3 prostate it was greater than 100 µM. The TGI in the experiment with SK-MEL-5 melanoma and in the experiment with U251 CNS was greater than 100 µM in each case.
In the case of `Cc1ccc2nc(NC(=O)/C(Cc3nc4ccc(Cl)cc4[nH]c3=O)=N\NC(C)(C)C)sc2c1`, the TGI was greater than 100 µM in the experiment on CCRF-CEM leukemia; greater than 100 µM in the experiment on COLO 205 colon; greater than 100 µM in the experiment with HCC-2998 colon; 73 µM with HS 578T breast; greater than 100 µM in the experiment on M14 melanoma; greater than 100 µM with OVCAR-8 ovarian. Also, the TGI with PC-3 prostate, with SF-539 CNS and in the experiment on U251 CNS was greater than 100 µM each time.
For `CC(C)CN=C(N)N=C(N)N`, the TGI with COLO 205 colon, in the experiment on HCC-2998 colon, in the experiment with HS 578T breast, in the experiment with M14 melanoma, in the experiment with OVCAR-8 ovarian and with PC-3 prostate was greater than 100 µM in each case. Also, the TGI in the experiment on SF-539 CNS, in the experiment on SK-MEL-5 melanoma and in the experiment on U251 CNS was greater than 100 µM each time.
Take `COC(=O)C(Cc1cccc(O)c1)NC(=O)C(CC(=O)OCc1ccccc1)NC(=O)OCc1ccccc1` (stereo not given) (Cbz-Asp(OBn)-[mTyr]-OMe; configuration not given here): the TGI in the experiment on COLO 205 colon, with HCC-2998 colon, with HS 578T breast, in the experiment on M14 melanoma, with OVCAR-8 ovarian and in the experiment with PC-3 prostate was greater than 100 µM in each case. The TGI with SK-MEL-5 melanoma and in the experiment on U251 CNS was greater than 100 µM in each case.
